Results on five molecules are retold here after patent publication US20230233569A1 (Revolution Medicines, Inc., priority 2020, published 2023).

What all share (test): Ras-Raf disruption / FRET / MOA assay (BRAF RBD)
Assay type in all cases: biochemical

The target of one assay is KRAS G12D (Homo sapiens, UniProt P01116+P62937, G12D). The note with it: Ras-Raf disruption, with Cyclophilin A; read-out: KRAS G12D FRET data IC50. A digest of the protocol: (§1)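 Compound-induced Ras–Cyclophilin A ternary complex disrupting BRAF RBD binding, read as IC50 from reduced TR-FRET ratio relative to DMSO. Final: Ras-GMPPNP 12.5 nM, BRAF RBD 50 nM, Cyclophilin A 25 μM, top compound 30 μM (3-fold, 10 points); 3 h at 25 °C, then 1.5 h with detection antibodies.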

The next assay deals with KRAS G12S (Homo sapiens, UniProt P01116+P62937, G12S). The note with it: Ras-Raf disruption, with Cyclophilin A; read-out: KRAS G12S FRET data IC50. The gist of the method:
as §1

The target in the next assay is KRAS G12V (Homo sapiens, UniProt P01116+P62937, G12V). The note with it: Ras-Raf disruption, with Cyclophilin A; read-out: KRAS G12V FRET data IC50. A digest of the protocol:
as §1

The target of the next assay is KRAS G13C (Homo sapiens, UniProt P01116+P62937, G13C). The note with it: Ras-Raf disruption, with Cyclophilin A; read-out: KRAS G13C FRET data IC50. A digest of the protocol: as §1
The next assay has as its target KRAS G13D (Homo sapiens, UniProt P01116+P62937, G13D). The note with it: Ras-Raf disruption, with Cyclophilin A; read-out: KRAS G13D FRET data IC50. The gist of the method:
as §1

The target of another assay is KRAS Q61H (Homo sapiens, UniProt P01116+P62937, Q61H). The note with it: KRAS Q61H; read-out: KRAS Q61H FRET data IC50. The gist of the method:
as §1

The target of the next assay is KRAS WT (Homo sapiens, UniProt P01116+P62937). The note with it: Ras-Raf disruption, with Cyclophilin A; read-out: KRAS WT FRET data IC50. The gist of the method: as §1
A further assay deals with NRAS G12C (Homo sapiens, UniProt P01111+P62937, G12C). The note with it: NRAS G12C; read-out: NRAS G12C FRET data IC50. The gist of the method: as §1
A further assay addresses NRAS Q61K (Homo sapiens, UniProt P01111+P62937, Q61K). The note with it: NRAS Q61K; read-out: NRAS Q61K FRET data IC50. The gist of the method: as §1
In another assay the target is NRAS Q61R (Homo sapiens, UniProt P01111+P62937, Q61R). The note with it: NRAS Q61R; read-out: NRAS Q61R FRET data IC50. The gist of the method: as §1
A further assay concerns the target NRAS WT (Homo sapiens, UniProt P01111+P62937). The note with it: NRAS WT; read-out: NRAS WT FRET data IC50. The gist of the method: as §1
The target in a further assay is KRAS G12C (Homo sapiens, UniProt P01116+P62937, G12C). The note with it: Ras-Raf disruption, with Cyclophilin A; read-out: KRAS G12C FRET data IC50. The gist of the method: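 TR-FRET read-out after 1.5 h with anti-His Eu-W1024 (10 nM) and anti-GST APC (50 nM), following 3 h at 25 °C of compound (top 30 μM, 3-fold, 10 points) with 25 μM Cyclophilin A, 12.5 nM GMPPNP-loaded K-Ras G12C and 50 nM BRAF RBD; IC50 reported.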
Sequence of KRAS G12C (P01116 1-169 isoform P01116-2 G12C limits assumed): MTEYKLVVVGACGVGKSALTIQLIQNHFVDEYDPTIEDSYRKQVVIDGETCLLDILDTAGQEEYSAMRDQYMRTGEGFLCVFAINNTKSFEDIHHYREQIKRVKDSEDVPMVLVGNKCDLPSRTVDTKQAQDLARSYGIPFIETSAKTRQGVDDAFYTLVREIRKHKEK
Sequence of KRAS G12C (P62937 whole entry): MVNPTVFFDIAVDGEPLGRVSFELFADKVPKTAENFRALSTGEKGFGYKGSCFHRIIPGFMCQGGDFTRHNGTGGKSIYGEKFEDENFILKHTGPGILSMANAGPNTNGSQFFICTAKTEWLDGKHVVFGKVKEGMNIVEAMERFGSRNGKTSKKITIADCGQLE

Sequence of KRAS Q61H (P01116 1-169 isoform P01116-2 Q61H limits assumed): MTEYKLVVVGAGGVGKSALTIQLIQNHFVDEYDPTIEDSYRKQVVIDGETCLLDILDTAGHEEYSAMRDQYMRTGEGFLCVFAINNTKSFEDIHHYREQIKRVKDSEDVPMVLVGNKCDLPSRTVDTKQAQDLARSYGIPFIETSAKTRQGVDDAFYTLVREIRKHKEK
Sequence of KRAS Q61H (P62937 whole entry): as the sequence (P62937 whole entry) above
Sequence of NRAS Q61R (P01111 whole entry Q61R): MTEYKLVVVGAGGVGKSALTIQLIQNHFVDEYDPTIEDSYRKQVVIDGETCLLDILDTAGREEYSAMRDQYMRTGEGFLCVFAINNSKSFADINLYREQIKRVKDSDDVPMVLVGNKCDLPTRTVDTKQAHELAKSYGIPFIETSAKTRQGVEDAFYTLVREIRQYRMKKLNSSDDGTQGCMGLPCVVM
Sequence of NRAS Q61R (P62937 whole entry): as the sequence (P62937 whole entry) above
Sequence of KRAS G12V (P01116 1-169 isoform P01116-2 G12V limits assumed): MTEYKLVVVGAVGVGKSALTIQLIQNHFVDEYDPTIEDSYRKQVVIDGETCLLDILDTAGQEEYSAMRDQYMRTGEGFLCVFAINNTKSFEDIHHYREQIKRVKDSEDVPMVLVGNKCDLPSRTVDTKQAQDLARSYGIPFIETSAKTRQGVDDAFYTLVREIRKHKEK
Sequence of KRAS G12V (P62937 whole entry): as the sequence (P62937 whole entry) above
Sequence of NRAS WT (P01111 whole entry): as the sequence (P01111 whole entry Q61R) above, with R61Q counted along it
Sequence of NRAS WT (P62937 whole entry): as the sequence (P62937 whole entry) above
Sequence of KRAS G13D (P01116 1-169 isoform P01116-2 G13D limits assumed): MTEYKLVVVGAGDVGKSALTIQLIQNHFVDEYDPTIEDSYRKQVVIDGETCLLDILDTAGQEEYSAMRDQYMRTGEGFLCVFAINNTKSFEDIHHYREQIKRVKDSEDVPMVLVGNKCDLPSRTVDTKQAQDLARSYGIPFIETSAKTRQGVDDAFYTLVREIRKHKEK
Sequence of KRAS G13D (P62937 whole entry): as the sequence (P62937 whole entry) above
Sequence of NRAS Q61K (P01111 whole entry Q61K): as the sequence (P01111 whole entry Q61R) above, with R61K counted along it
Sequence of NRAS Q61K (P62937 whole entry): as the sequence (P62937 whole entry) above
Sequence of NRAS G12C (P01111 whole entry G12C): as the sequence (P01111 whole entry Q61R) above, with G12C, R61Q counted along it
Sequence of NRAS G12C (P62937 whole entry): as the sequence (P62937 whole entry) above
Sequence of KRAS G12S (P01116 1-169 isoform P01116-2 G12S limits assumed): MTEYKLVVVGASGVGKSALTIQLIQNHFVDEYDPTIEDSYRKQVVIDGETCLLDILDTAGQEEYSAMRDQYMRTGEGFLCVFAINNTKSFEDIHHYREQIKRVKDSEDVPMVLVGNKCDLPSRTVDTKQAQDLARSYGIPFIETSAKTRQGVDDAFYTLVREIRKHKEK
Sequence of KRAS G12S (P62937 whole entry): as the sequence (P62937 whole entry) above
Sequence of KRAS G12D (P01116 1-169 isoform P01116-2 G12D limits assumed): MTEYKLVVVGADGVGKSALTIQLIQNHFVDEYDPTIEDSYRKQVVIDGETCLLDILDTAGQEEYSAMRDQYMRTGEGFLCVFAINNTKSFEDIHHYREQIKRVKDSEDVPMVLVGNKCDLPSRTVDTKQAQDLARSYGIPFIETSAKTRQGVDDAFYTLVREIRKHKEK
Sequence of KRAS G12D (P62937 whole entry): as the sequence (P62937 whole entry) above
Sequence of KRAS G13C (P01116 1-169 isoform P01116-2 G13C limits assumed): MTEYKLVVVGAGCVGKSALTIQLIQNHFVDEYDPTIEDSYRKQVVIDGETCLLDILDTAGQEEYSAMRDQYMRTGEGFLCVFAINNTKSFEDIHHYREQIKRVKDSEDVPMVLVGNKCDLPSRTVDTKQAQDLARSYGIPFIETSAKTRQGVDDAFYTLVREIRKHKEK
Sequence of KRAS G13C (P62937 whole entry): as the sequence (P62937 whole entry) above
Sequence of KRAS WT (P01116 1-169 isoform P01116-2 limits assumed): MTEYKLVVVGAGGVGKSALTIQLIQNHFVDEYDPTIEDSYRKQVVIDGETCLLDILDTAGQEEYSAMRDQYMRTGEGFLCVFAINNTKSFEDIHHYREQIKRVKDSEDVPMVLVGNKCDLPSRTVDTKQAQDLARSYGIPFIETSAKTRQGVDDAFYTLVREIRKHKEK
Sequence of KRAS WT (P62937 whole entry): as the sequence (P62937 whole entry) above

The IC50 is the concentration that inhibits the measured activity by half. `CCn1c(-c2cccnc2[C@H](C)OC)c2c3cc(ccc31)-c1csc(n1)C[C@H](NC(=O)[C@H](C(C)C)N(C)C(=O)N1CCN(C(=O)[C@@H]3CN3)[C@H](C)C1)C(=O)N1CCC[C@H](N1)C(=O)OCC(C)(C)C2` [Example 300]: the IC50 at KRAS G12D is 100 to 1000 nM; at KRAS G12S it was 100 to 1000 nM; at KRAS G12V, 100 to 1000 nM; on KRAS G13C, 100 to 1000 nM; at KRAS G13D it was 100 to 1000 nM; on KRAS Q61H, 10 to 100 nM. In addition, the IC50 lay in the range of 100 to 1000 nM at KRAS WT; 10 to 100 nM at NRAS G12C; 10 to 100 nM on NRAS Q61K; 100 to 1000 nM at NRAS Q61R; 100 to 1000 nM at NRAS WT; 100 to 1000 nM on KRAS G12C.

In the case of `CCn1c(-c2cccnc2[C@H](C)OC)c2c3cc(ccc31)-c1cc(O)cc(c1)C[C@H](NC(=O)[C@H](C(C)C)N(C)C(=O)N1CCN(C(=O)[C@@H]3CN3)CC1=O)C(=O)N1CCC[C@H](N1)C(=O)OCC(C)(C)C2` (atropisomer, axis not shown) [Example 205], the IC50 at KRAS G12D was 1000 to 10000 nM; at KRAS G12S, 100 to 1000 nM; at KRAS G12V, 100 to 1000 nM; on KRAS G13C, < 10 nM; on KRAS G13D, 100 to 1000 nM; at KRAS Q61H, 10 to 100 nM. Moreover, the IC50 was in the range of 10 to 100 nM at KRAS WT; 10 to 100 nM on NRAS G12C; 100 to 1000 nM at NRAS Q61K; 100 to 1000 nM on NRAS Q61R; 10 to 100 nM on NRAS WT; 10 to 100 nM on KRAS G12C.

`CCn1c(-c2cccnc2[C@H](C)OC)c2c3cc(ccc31)-c1cc(O)cc(c1)C[C@H](NC(=O)[C@H](C(C)C)N(C)C(=O)N(C)CCN(C)C(=O)[C@H]1CN1)C(=O)N1CCC[C@H](N1)C(=O)OCC(C)(C)C2` (atropisomer, axis not shown) [Example 204]: the IC50 at KRAS G12D lay within 100 to 1000 nM; on KRAS G12S, 10 to 100 nM; on KRAS G12V, 10 to 100 nM; on KRAS G13C, 10 to 100 nM; at KRAS G13D, 10 to 100 nM; at KRAS Q61H, 10 to 100 nM. The IC50 is 10 to 100 nM on KRAS WT; < 10 nM at NRAS G12C; 100 to 1000 nM on NRAS Q61K; 100 to 1000 nM on NRAS Q61R; 10 to 100 nM at NRAS WT; < 10 nM on KRAS G12C.

For `CCn1c(-c2cccnc2[C@H](C)OC)c2c3cc(ccc31)-c1cc(O)cc(c1)C[C@H](NC(=O)[C@H](C(C)C)N(C)C(=O)[C@H]1CCCN(C(=O)[C@H]3CN3)C1)C(=O)N1CCC[C@H](N1)C(=O)OCC(C)(C)C2` [Example 165], the IC50 fell in the range of 100 to 1000 nM at KRAS G12D; 100 to 1000 nM at KRAS G12S; 10 to 100 nM on KRAS G12V; 100 to 1000 nM at KRAS G13C; 100 to 1000 nM at KRAS G13D; 100 to 1000 nM on KRAS Q61H. The 50% inhibitory concentration (IC50) was 100 to 1000 nM on KRAS WT; < 10 nM on NRAS G12C; 1000 to 10000 nM at NRAS Q61K; 1000 to 10000 nM at NRAS Q61R; 100 to 1000 nM at NRAS WT; < 10 nM at KRAS G12C.

As for `CCn1c(-c2cccnc2[C@H](C)OC)c2c3cc(ccc31)-c1csc(n1)C[C@H](NC(=O)[C@H](C(C)C)N(C)C(=O)N1CC(CN(C)C(=O)[C@@H]3CN3)C1)C(=O)N1CCC[C@H](N1)C(=O)OCC(C)(C)C2` (atropisomer, axis not shown) [Example 225], the IC50 at KRAS G12D was in the range of 100 to 1000 nM; on KRAS G12S, 100 to 1000 nM; at KRAS G12V it was 100 to 1000 nM; on KRAS G13C, 100 to 1000 nM; on KRAS G13D, 100 to 1000 nM; on KRAS Q61H it was 10 to 100 nM. Besides, the 50% inhibitory concentration (IC50) lay in the range of 100 to 1000 nM at KRAS WT; 10 to 100 nM on NRAS G12C; 10 to 100 nM at NRAS Q61K; 100 to 1000 nM at NRAS Q61R; 10 to 100 nM at NRAS WT; 10 to 100 nM at KRAS G12C.
